Measured values taken from patent US20050143371A1, “Beta-carboline compounds and analogues thereof as mitogen-activated protein kinase-activated protein kinase-2 inhibitors” (Pharmacia Corporation, priority 2003, published 2005).
Several values for one entry are separate records, joined by “and”; a condition that tells them apart may be missing. Equal values may be shown once. Where a name gives a salt, the structure may show the parent alone. Read-outs that look alike come from different tables or passages of the source.

How the values were obtained:
[1] = biological target: Recombinant MAPKAPK2 (Homo sapiens, UniProt P49137); experiment: Determination of MK-2 IC50 (HSP-peptide phosphorylation, anion exchange resin capture assay)
Method: The phosphorylation of HSP-peptide ([sequence]) by MAPKAPK2 was measured using an anion exchange resin capture assay method. […] The reaction was terminated and [γ^33P]ATP was removed from solution by the addition of 150 μl of AG 1×8 ion exchange resin in 900 mM sodium formate pH 3.0. A 50 μl aliquot of head volume was removed from the quenched reaction mixture and added to a 96-well plate, 150 μl of Microscint-40 (Packard) was added and the amount of phosphorylated-peptide was determined. Allow the Microscint to sit in the plates for 60 minutes prior to counting.
Compounds are evaluated as potential inhibitors of the MK2 kinase by measuring their effects on MK2 phosphorylation of the peptide substrate. Compounds may be screened initially at two concentrations prior to determination of IC50 values. Screening results are expressed as percent inhibition at the concentrations of compound tested. For IC50 value determinations, compounds are tested at six concentrations in ten-fold serial dilutions with each concentration tested in triplicate. Results are expressed as IC50 values in micromolar. The assay is performed at a final concentration of 2% DMSO.

[2] = test system: TNFα release, U937 cells; experiment: U937 Cell TNFα Release Assay (LPS-stimulated, TNFα ELISA); assay type: cell-based, human; conditions: additional values are replicate IC50 experiments, read-out: TNF Release Assay Avg. IC50
Method: U937 Cell TNFα Release Assay
Differentiation of U937 to monocytic/macrophage-like cells is induced by the addition of phorboll2-myristate 13-acetate (Sigma) at final concentration of 20 ng/ml to a culture of U937 cells at ˜0.5 million cells/ml and incubated for 24 hrs. The cells are centrifuged, washed with PBS and resuspended in fresh media without PMA and incubated for 24 hrs. Cells adherent to the culture flask are harvested by scraping, centrifugation, and resuspended in fresh media to 2 million cells/ml, and 0.2 ml is aliquoted to each of 96 wells in flat-bottom plate. Cells are then incubated for an additional 24 hrs to allow for recovery. The media is removed from the cells, and 0.1 ml of fresh media is added per well. 0.05 ml of serially diluted compound or control vehicle (Media with DMSO) is added to the cells. […] Cells are incubated at 37° C. for 4 hrs. After 4 hrs incubation, supernatants are harvest and assayed by ELISA for the presence of TNFα.
Coating solution was aspirated the following day and wells were blocked with 1 mg/ml gelatin in PBS (plus 1×thimerasol) for 2 days at 4° C. Prior to using, wells were washed 3× with wash buffer (PBS with 0.05% Tween). Cultured media samples were diluted in EIA buffer (5 mg/ml bovine γ-globulin, 1 mg/ml gelatin, 1 ml/l Tween-20, 1 mg/ml thimerasol in PBS), added to wells (0.1 ml/well) in triplicate and allowed to incubate for 1.5 hr at 37° C. in a humidified chamber. […] After final washing, plates were developed with peroxidase-ABTS solution (Kirkegaard/Perry #50-66-01, 0.1 ml/well). […] TNF levels were quantitated from a recombinant human TNFα (R&D Systems #210-TA-010) standard curve using a quadratic parameter fit generated by SoftMaxPRO software. ELISA sensitivity was approximately 30 pg TNF/ml. IC50 values for compounds were generated using BioAssay Solver.

[3] = test system: murine model of endotoxin-induced shock; conditions: cited from earlier work
[4] = test system: mouse collagen-induced arthritis; conditions: in vivo; cited from earlier work
[5] = test system: rat adjuvant arthritis; conditions: in vivo; cited from earlier work
[6] = read-out: in vitro MK-2 inhibition IC50
[7] = Homo sapiens, U-937, U937 cells

Recombinant MAPKAPK2, sequence (P49137 whole entry, species assumed): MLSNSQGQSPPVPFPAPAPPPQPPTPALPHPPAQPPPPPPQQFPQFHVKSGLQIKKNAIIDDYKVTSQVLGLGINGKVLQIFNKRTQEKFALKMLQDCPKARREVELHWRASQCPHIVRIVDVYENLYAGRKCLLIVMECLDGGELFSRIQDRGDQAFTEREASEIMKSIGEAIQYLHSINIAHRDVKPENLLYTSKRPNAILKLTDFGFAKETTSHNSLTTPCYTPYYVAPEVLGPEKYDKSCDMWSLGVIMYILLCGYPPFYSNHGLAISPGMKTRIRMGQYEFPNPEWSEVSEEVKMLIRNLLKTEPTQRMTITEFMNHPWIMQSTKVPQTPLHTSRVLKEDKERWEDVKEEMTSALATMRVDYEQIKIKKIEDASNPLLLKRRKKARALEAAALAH

Compound: ON=C1CCCc2c1[nH]c1ccc(C(F)(F)F)cc21 [6-(trifluoromethyl)-2,3,4,9-tetrahydro-1H-carbazol-1-one oxime]
- IC50 [1, 6]: < 200 µM

Compound: O=C1NCCc2[nH]c3c(ccc4cnccc43)c21 [Compound 1, 8,9,10,11-tetrahydro-7H-py-rido[3′,4′:4,5]pyrrolo[2,3-f]isoquinolin-7-one trifluoroacetate]
- IC50 [2, 7]: 0.845 µM

Compound: O/N=C1\CCCc2c1[nH]c1ccc(Br)cc21 [Compound 14]
- IC50 [2, 7]: 15.3 µM
- IC50 [1]: 7.01 µM

Compound: COc1ccc2[nH]c3c(c2c1)CCC(C)/C3=N/O (stereo not shown) [Compound 19, 6-methoxy-2-methyl-2,3,4,9-tetrahydro-1H-car-bazol-1-one oxime]
- IC50 ([2]; U937 cells): 100 µM and 95 µM

Compound: O=C1NCCc2c1[nH]c1ccc(CCc3ccccc3)cc21 [Compound 42, 6-(2-phenylethyl)-2,3,4,9-tetra-hydro-1H-beta-car-bolin-1-one]
- IC50 [1]: > 200 µM

Compound: COC(=O)c1cccc2c3c([nH]c12)CCNC3=O [Example 6, methyl 1-oxo-2,3,4,5-tetrahydro-1H-pyrido[4,3-b]indole-6-carboxylate]
- IC50 [1, 6]: < 20 µM

Compound: C[S+]([O-])c1ccc(-c2nc(-c3ccncc3)c(-c3ccc(F)cc3)[nH]2)cc1 (stereo not shown) [SB203580]
- mortality [3]: reduce mortality
- development of mouse collagen-induced arthritis [4]: inhibit the development
- development of rat adjuvant arthritis [5]: inhibit the development
